Data as given in patent publication US20260200990A1, “MODIFIED LONG PEPTIDES SUITABLE FOR USE IN IMMUNISATION” (ISABELLA PHARMA B.V., priority 2022, published 2026).

System: T cells cultured from PBMC from healthy donors
Test: T cell induction by PRAME-based SLPs, IFNy ELISpot (test 1 and test 2)
Design: species or system human; key to ELISPOT IFNy / ELISPOT IFNy, summary of the results in the table: − (negative); + (positive); When at least one donor had a positive response, this is denoted as POS
Conditions: for IFNy response in in vitro human T cell cultures: summary over the donors tested
Method: The capacity of human-PRAME-based SLPs to activate T cells was studied. The biological activity of the synthesized and purified SLPs was tested using PBMC from healthy donors. Monocytes were isolated using anti-CD14 beads by magnet activated cell sorting (MACS) following the protocol of the supplier (Miltenyi Biotec). In short, PBMCs were isolated by centrifugation over a Ficoll gradient and cryopreserved. To generate dendritic cells (DCs), approximately […] thawed PBMC were used for the isolation of CD14 positive cells. The cells were cultured for three days at 37° C. in 2 ml/well of IMDM 4% human serum (HS) containing 800 U/ml GM-CSF and 500 U/ml IL-4 (Peprotech). After 3 days 1 mL/well of IMDM 4% HS with GM-CSF (2400 U/mL) and IL-4 (1500 U/mL) was added to the monocytes-derived DCs and these adhered cells were cultured for an additional 3 days. On day 6, long peptides distributed over 2 pools were added to monocyte-derived DCs of naive donors at a 13 μM concentration and incubated overnight at 37° C. The next day (day 7) peptide-loaded DCs were harvested, irradiated (1000 rad), washed and mixed in a 1:10 ratio with autologous PBMC in IMDM 8% human serum in the presence of IL-7 (10 ng/ml) and IL-12p70 (100 μg/mL).
On day 10 new DCs were generated and loaded, after 6 days, with SLPs on day 16 as described above. The next day, these peptide-loaded DCs were harvested, irradiated (1000 rad) and washed. Also the cultured T cells were harvested. Both were counted and mixed in a 1:10 ratio (DC:T) in IMDM 8% human serum in the presence of IL-7 (10 ng/ml) and IL-12p70 (100 μg/mL) for the first restimulation. On the same day, new DCs were generated as described above that were loaded with SLPs on day 23 as described above. The next day, peptide-loaded DCs were harvested, irradiated (1000 rad) and washed. Also the cultured and restimulated T cells were harvested. Both were counted and mixed in a 1:10 ratio (DC:T) in IMDM 8% human serum in the presence of IL-7 (10 ng/ml) and IL-12p70 (100 μg/mL) for the second restimulation.
On this day 24, also test 1 was started in which DCs loaded with individual SLPs were cultured with harvested T cells from restimulation 1. For test 1, DCs and harvested T cells were cultured in a 1:10 ratio for 2 days after which cells were transferred to a coated ELISpot plate (see description below). On day 24, new DCs were generated as described above that were loaded with SLPs on day 30 as described above. The next day, peptide-loaded DCs were harvested, irradiated (1000 rad) and washed. Also the cultured twice restimulated T cells were harvested. Both were counted and mixed in a 1:10 ratio (DC:T) in IMDM 8% human serum in the presence of IL-2 (30 IU/mL) and IL-12p70 (100 μg/mL) for the third restimulation.
On day 31, also test 2 was started in which DCs loaded with individual SLPs were cultured with harvested T cells from restimulation 2. For test 2, DCs and harvested T cells were cultured in a 1:10 ratio for 2 days after which cells were transferred to a coated ELISpot plate (see description below).
The T cell cultures were restimulated three times in 1-week cycles using peptide loaded autologous moDCs. After the 2nd and 3rd restimulation, reactivity towards single SLPs was tested (test 1 and test 2, respectively). Reactivity was determined by measuring IFNy production using ELISpot.
For ELISpot analysis, multiscreen plates were coated with an IFNy coating antibody overnight at 4° C. The next day, the plate was washed 4× with PBS and blocking was done using IMDM 8% HS at 37° C. for at least one hour. Each sample was tested in triplicate. As a positive control, phytoheamagglutinin (PHA, 1 μg/mL) was added to cells that were not stimulated with SLP after thawing. The plate was cultured overnight at 37° C. Thereafter, cells were discarded and the plate was washed using PBS/0.05% Tween-20. The IFNy detection antibody was diluted and added to each well and incubated for 2 hours at room temperature. […]

[1] = donor BC228, Test 1, pool of 3 peptides
[2] = donor BC228, Test 2, pool of 3 peptides
[3] = donor BC298, Test 1, 2 peptide pools
[4] = donor BC298, Test 2, 2 peptide pools
[5] = donor BC303, Test 1, pool of 3 peptides
[6] = donor BC303, Test 2, pool of 3 peptides
[7] = donor BC305, Test 1, 2 peptide pools
[8] = donor BC305, Test 2, 2 peptide pools
[9] = donor BC306, Test 1, 2 peptide pools
[10] = donor BC306, Test 2, 2 peptide pools
[11] = donor BC312, Test 1, 2 peptide pools
[12] = donor BC312, Test 2, 2 peptide pools
[13] = donor BC314, Test 1, pool of 3 peptides
[14] = donor BC314, Test 2, pool of 3 peptides
[15] = donor BC320, Test 1, pool of 3 peptides
[16] = donor BC320, Test 2, pool of 3 peptides
[17] = donor BC321, Test 1, 2 peptide pools
[18] = donor BC321, Test 2, 2 peptide pools
[19] = donor BC322, Test 1, pool of 3 peptides
[20] = donor BC322, Test 2, pool of 3 peptides
[21] = donor BC323, Test 1, pool of 3 peptides
[22] = donor BC323, Test 2, pool of 3 peptides

For “LETFKAVLDGLDVLLAQEVRPRRWKLQVLDLRK (listed as Homo sapiens) [SEQ ID NO: 45, PRAME-based SLP of WO2008118017, reference compound]”, the “ELISPOT IFNy” value [1] was “−”, the “ELISPOT IFNy” value [2] was “−” and the “ELISPOT IFNy” value [3] was “−”. The “ELISPOT IFNy” value [4] was “−”, the “ELISPOT IFNy” value [5] was “−” and the “ELISPOT IFNy” value [6] was “−”. For the same sequence, the “ELISPOT IFNy” value [7] was “−”, the “ELISPOT IFNy” value [8] was “−” and the “ELISPOT IFNy” value [9] was “−”. For the same sequence, the “ELISPOT IFNy” value [10] was “−”, the “ELISPOT IFNy” value [11] was “−” and the “ELISPOT IFNy” value [12] was “−”. For the same sequence, the “ELISPOT IFNy” value [13] was “−”, the “ELISPOT IFNy” value [14] was “−” and the “ELISPOT IFNy” value [15] was “−”. The “ELISPOT IFNy” value [16] was “−”, the “ELISPOT IFNy” value [17] was “−” and the “ELISPOT IFNy” value [18] was “−”. For the same sequence, the “ELISPOT IFNy” value [19] was “−”, the “ELISPOT IFNy” value [20] was “−” and the “ELISPOT IFNy” value [21] was “−”. The “ELISPOT IFNy” value [22] was “−” and the “IFNy response in in vitro human T cell cultures” value was “did not show convincing responses”.
With “VLSLSGVMLTDVSPEPLQALLERASATLQDLVFDE (listed as Homo sapiens) [SEQ ID NO: 50, PRAME-based SLP of WO2008118017, reference compound]” the “ELISPOT IFNy” value [1] was “−”, the “ELISPOT IFNy” value [2] was “−” and the “ELISPOT IFNy” value (donor BC290, Test 1, 2 peptide pools) was “−”. The “ELISPOT IFNy” value (donor BC290, Test 2, 2 peptide pools) was “−”, the “ELISPOT IFNy” value [3] was “−” and the “ELISPOT IFNy” value [4] was “−”. For the same sequence, the “ELISPOT IFNy” value [5] was “−”, the “ELISPOT IFNy” value [6] was “−” and the “ELISPOT IFNy” value [7] was “−”. For the same sequence, the “ELISPOT IFNy” value [8] was “−”, the “ELISPOT IFNy” value [9] was “−” and the “ELISPOT IFNy” value [10] was “−”. The “ELISPOT IFNy” value [11] was “−”, the “ELISPOT IFNy” value [12] was “−” and the “ELISPOT IFNy” value [13] was “−”. For the same sequence, the “ELISPOT IFNy” value [14] was “−”, the “ELISPOT IFNy” value (donor BC315, Test 1, 2 peptide pools) was “−” and the “ELISPOT IFNy” value (donor BC315, Test 2, 2 peptide pools) was “−”. For the same sequence, the “ELISPOT IFNy” value [15] was “−”, the “ELISPOT IFNy” value [16] was “−” and the “ELISPOT IFNy” value [17] was “−”. For the same sequence, the “ELISPOT IFNy” value [18] was “−”, the “ELISPOT IFNy” value [19] was “−” and the “ELISPOT IFNy” value [20] was “−”. For the same sequence, the “ELISPOT IFNy” value [21] was “−”, the “ELISPOT IFNy” value [22] was “−” and the “IFNy response in in vitro human T cell cultures” value was “did not show convincing responses”.
